From patent US7285546B2, “Cephalotaxanes, their method of preparation and their use in treatment of cancers, leukemias, parasites including those resistant to usual chemotherapeutic agents and as reversal agents” (Stragen Pharma S.A., priority 2000, dated 2007)
Converted amounts (≈) assume the structure as drawn.

System: K562 cell line
Assay: MTT test of structural analogues of harringtonines on K562 cell line
Type: cell-based
Conditions: Homo sapiens, K562, 72 h
Procedure: (§1) Structural analogues of harringtonines described in this invention were tested on K562 cell line, derived from chronic myeloid leukemia cells in blastic transformation (bcr-abl positive). The cell line was purchased from ATCC (American Tissue Culture Collection) and grown in RPMI medium supplemented with 10% heat-inactivated fetal calf serum, 2 mmol/L glutamine, […] penicillin and […] streptomycin. All tested products were initially dissolved in […] (pH=2), supplemented with ultrasound treatment during 1 h. Working concentrations were made by dilution in culture medium (pH around 7). Cells in exponential growth phase were placed into 96-microwell plates in concentration 3×10^4/mL (total volume 200 μL/well) and incubated with drugs for 72 h at 37° C. in 5% CO2 humidified atmosphere. Following incubation, 2 μL of MTT solution (Sigma, St. Louis, Mo.) was added to each well. During the following 6 h of incubation at 37° C., the purple formazan product was formed by conversion of the yellow MTT salt in the mitochondria of the viable cells. The resulting precipitate was dissolved in DMSO and the amount of converted MTT was quantified in an ELISA reader (MR 5000, Dynatech). Each product was tested in triplicate (3×8 wells). Every test contained at least one plate with HHT as control, added in the same concentration as the tested products.

| Structure (SMILES) | IC50 [µg/mL] |
| --- | --- |
| COC(=O)C[C@](O)(CCC(C)(C)F)C(=O)OC1C(OC)=C[C@@]23CCCN2CCc2cc4c(cc2[C@H]13)OCO4 (stereo partly drawn) [Example 59, (2′R)-3″-Fluoro-3″-deoxy-harringtonine] | 0.0135 (≈ 0.0253 µM) |
| CC=CCOC(=O)C[C@](O)(CCC(C)(C)O)C(=O)OC1C(OC)=C[C@@]23CCCN2CCc2cc4c(cc2[C@H]13)OCO4 (stereo partly drawn) [Example 55, (2′R)-4′-(but-2-enyl)-4′-demethyl-harringtonine] | 0.014 (≈ 0.0245 µM) |
| COCCOC(=O)C[C@](O)(CCCC(C)(C)O)C(=O)OC1C(OC)=C[C@@]23CCCN2CCc2cc4c(cc2[C@H]13)OCO4 (stereo partly drawn) [Example 78, (2′R)-4′-(2-methoxyethoxy)-4′-demethyl-homoharringtonine] | 0.012 (≈ 0.0203 µM) |
| CCC(C)COC(=O)C[C@](O)(CCCC(C)(C)O)C(=O)OC1C(OC)=C[C@@]23CCCN2CCc2cc4c(cc2[C@H]13)OCO4 (stereo partly drawn) [Example 69, (2′R)-4′-(methyl-2-butyl)-4′-demethyl-homoharringtonine] | 0.029 (≈ 0.0482 µM) |
| COC1=C[C@@]23CCCN2CCc2cc4c(cc2[C@@H]3C1OC(=O)[C@@](O)(CCCC(C)(C)O)CC(=O)OCc1cccc(C)c1)OCO4 (stereo partly drawn) [Example 73, (2′R)-4′-m-methylbenzyl-4′-demethyl-homoharringtonine] | 0.004 (≈ 0.00629 µM) |
| CCCCCCOC(=O)C[C@](O)(CCC(C)C)C(=O)OC1C(OC)=C[C@@]23CCCN2CCc2cc4c(cc2[C@H]13)OCO4 (stereo partly shown) [Example 84, (2′ R)-4′-hexanyloxy-4′-demethyldeoxyharringtonine] | 0.007 (≈ 0.012 µM) |
| COC1=C[C@@]23CCCN2CCc2cc4c(cc2[C@@H]3C1OC(=O)[C@@](O)(CCCC(C)(C)O)CC(=O)OCc1ccc(OC)cc1)OCO4 (stereo partly drawn) [Example 86, (2′R)-4′-p-methoxybenzyloxy-4′-demethyl-homoharringtonine] | 0.02 (≈ 0.0307 µM) |

Same assay, conditions: K562 cell line, 72 h incubation, MTT

| Structure (SMILES) | IC50 [µg/mL] |
| --- | --- |
| CC=CC=CCOC(=O)C[C@](O)(CCCC(C)(C)O)C(=O)O[C@@H]1C(OC)=C[C@]23CCCN2CCc2cc4c(cc2[C@H]13)OCO4 [Example 43, (2′R)-4′-(hexa-2,4-dienyl)-4′-demethyl-homoharringtonine] | 0.0035 (≈ 0.00572 µM) |
| CC=CCCCOC(=O)C[C@](O)(CCCC(C)(C)O)C(=O)O[C@@H]1C(OC)=C[C@]23CCCN2CCc2cc4c(cc2[C@H]13)OCO4 [Example 53, (2′R)-4′-(hex-4-enyl)-4′-demethyl-homoharringtonine] | 0.0085 (≈ 0.0138 µM) |

System: K562MRP
Assay: MTT test on K562MRP, homoharringtonine-resistant subline of K562
Type: cell-based
Conditions: K562MRP subline resistant to 50 ng/mL homoharringtonine, same method as K562
Procedure: as §1

| Structure (SMILES) | IC50 [µg/mL] |
| --- | --- |
| CC=CC=CCOC(=O)C[C@](O)(CCCC(C)(C)O)C(=O)O[C@@H]1C(OC)=C[C@]23CCCN2CCc2cc4c(cc2[C@H]13)OCO4 [Example 43, (2′R)-4′-(hexa-2,4-dienyl)-4′-demethyl-homoharringtonine] | 0.016 (≈ 0.0262 µM) |
